“And” between values parts separate entries of the source, which are not always exact repeats. Equal entries are not always repeated. Where two headings read alike, the source gives them in different places.
What was measured:
[1] = test system: epithelial ovarian cancer cell lines; details: drugs given separately or co-administered; cited from earlier work
[2] = Plasma pharmacokinetics of metformin in rats after a single oral dose, alone or with olaparib (HPLC-UV, non-compartmental); assay type: in vivo, Wistar rats; details: for Cmax / k el: po; for Cmax / k el / Cl/F / ka / t0.5: rat plasma, n = 8, mean ± SD
Experimental: Adult male Wistar rats (weight 380–530 g) were used in the study. The animals were maintained under standard breeding conditions with a 12/12 h light–dark cycle (lights on at 06.00, lights off at 18.00) at constant room temperature (23 ± 2 °C), relative humidity of 55 ± 10% and given ad libitum access to food and water. The animals were allowed to acclimatize for a week before the beginning of the experiments. The rats were divided into three groups. […] The solution for oral metformin administration was prepared in saline at a single dose of 100 mg/kg [15]. Drugs were orally administered to rats by gavage between 7:00 a.m. and 8:00 a.m. Before administration (0 h) and at different time intervals after the administration, i.e., 0.085, 0.5, 1, 2, 4, 6, 8, 10, and 24 h [16], blood was collected from the tail vein of each rat into 1.5-ml heparinized Eppendorf (EP) tubes. The blood samples were centrifuged at 5000 rpm for 10 min, and the plasma was transferred to new centrifuge tubes and then stored at – 80 °C.
High-performance liquid chromatography (HPLC) with ultraviolet (UV) detection (HPLC Waters 2695 Separations Module with autosampler, Waters 2487 Dual Absorbance Detector) [17] after a liquid–liquid extraction with a mixture of 1-butanol:n-heptane (50:50, v/v) was applied to measure the concentrations of metformin in the rats’ plasma. An analytical Symmetry® C8 column (250 × 4.6 mm, 5.0 μm; Waters Corporation, Milford, MA, USA) and a mobile phase consisting of 0.1 M ammonium formate solution, pH 6.3 with an isocratic flow rate of 1.0 ml/min were used. The volume of each injection was 20 µl, and the retention times for metformin and internal standard (acetaminophen) were 3.5 and 11.2 min, respectively.
The maximum plasma concentration (Cmax) and the time to reach the Cmax (tmax) were obtained directly from the measured values. All of the above-mentioned parameters underwent statistical analysis.

[3] = male, Wistar, rat, plasma, 100 mg/kg, IIMET: metformin 100 mg/kg b.w. oral single dose alone
[4] = male, Wistar, rat, plasma, 100 mg/kg, IMET+OLA: metformin 100 mg/kg b.w. + olaparib 100 mg/kg b.w. oral single dose
[5] = metformin, rats, with olaparib / alone
[6] = IIMET: metformin 100 mg/kg b.w. oral single dose alone
[7] = IMET+OLA: metformin 100 mg/kg b.w. + olaparib 100 mg/kg b.w. oral single dose
[8] = rats, co-administered with olaparib vs. metformin alone
[9] = rats, concomitant olaparib and metformin

## CN(C)C(=N)N=C(N)N [metformin, Metformin]
[1]
  percentage of late apoptotic cells: 8.2%
[2]; male, Wistar, rat, plasma, oral, 100 mg/kg, t 0.083 h, IIMET (metformin alone), group mean, read-out: Cmet, S (group mean)
  concentration at 0.083 h: 146 ng/mL
[2]; male, Wistar, rat, plasma, oral, 100 mg/kg, t 1 h, IIMET (metformin alone), group mean, read-out: Cmet, S (group mean)
  concentration at 1 h: 397 ng/mL
[2]; male, Wistar, rat, plasma, oral, 100 mg/kg, t 2 h, IIMET (metformin alone), group mean, read-out: Cmet, S (group mean)
  concentration at 2 h: 285 ng/mL
[2]; male, Wistar, rat, plasma, oral, 100 mg/kg, t 6 h, IIMET (metformin alone), group mean, read-out: Cmet, S (group mean)
  concentration at 6 h: 156 ng/mL
[2]; male, Wistar, rat, plasma, oral, 100 mg/kg, t 8 h, IIMET (metformin alone), group mean, read-out: Cmet, S (group mean)
  concentration at 8 h: 163 ng/mL
[2]; male, Wistar, rat, plasma, oral, 100 mg/kg, t 10 h, IIMET (metformin alone), group mean, read-out: Cmet, S (group mean)
  concentration at 10 h: 133 ng/mL
[2]; male, Wistar, rat, plasma, oral, 100 mg/kg, t 24 h, IIMET (metformin alone), group mean, read-out: Cmet, S (group mean)
  concentration at 24 h: 112 ng/mL
[2]; male, Wistar, rat, plasma, oral, t 0.083 h, IMET+OLA (metformin and olaparib), group mean, read-out: Cmet, S (group mean)
  concentration at 0.083 h: 140 ng/mL
[2]; male, Wistar, rat, plasma, oral, t 0.5 h, IMET+OLA (metformin and olaparib), group mean, read-out: Cmet, S (group mean)
  concentration at 0.5 h: 590 ng/mL
[2]; male, Wistar, rat, plasma, oral, t 1 h, IMET+OLA (metformin and olaparib), group mean, read-out: Cmet, S (group mean)
  concentration at 1 h: 968 ng/mL
[2]; male, Wistar, rat, plasma, oral, t 2 h, IMET+OLA (metformin and olaparib), group mean, read-out: Cmet, S (group mean)
  concentration at 2 h: 858 ng/mL
[2]; male, Wistar, rat, plasma, oral, t 4 h, IMET+OLA (metformin and olaparib), group mean, read-out: Cmet, S (group mean)
  concentration at 4 h: 734 ng/mL
[2]; male, Wistar, rat, plasma, oral, t 6 h, IMET+OLA (metformin and olaparib), group mean, read-out: Cmet, S (group mean)
  concentration at 6 h: 626 ng/mL
[2]; male, Wistar, rat, plasma, oral, t 10 h, IMET+OLA (metformin and olaparib), group mean, read-out: Cmet, S (group mean)
  concentration at 10 h: 334 ng/mL
[2]; male, Wistar, rat, plasma, oral, t 24 h, IMET+OLA (metformin and olaparib), group mean, read-out: Cmet, S (group mean)
  concentration at 24 h: 182 ng/mL
[2]; [3]
  Cmax: 450 ± 290 ng/mL
  k el: 8.89e-06 s⁻¹
[2]; [4]
  Cmax: 1250 ± 800 ng/mL
  k el: 1.5e-05 s⁻¹
[2]; [5]
  IMET+OLA/IIMET ratio for AUC0-t: 2.59
  IMET+OLA/IIMET ratio for AUC0→∞: 1.74
  IMET+OLA/IIMET ratio for Cmax: 2.78
[2]; [6]
  Cl/F: 6.31 ± 1.48 l/h and 6.31 ± 1.48 (23.5) l/h
  ka: 0.41 ± 0.25 (62.4) h^−1
  t0.5: 26.54 ± 14.52 (54.7) h
[2]; [7]
  Cl/F: 3.57 ± 1.26 l/h and 3.57 ± 1.26 (35.34) l/h
  ka: 0.59 ± 0.17 (29.7) h^−1
  t0.5: 14.95 ± 6.04 (40.4) h
[2]; [8]
  decrease of metformin Cl/F in the presence of olaparib: 43.4%
  decrease of metformin Vd/F in the presence of olaparib: 65.1%
  increase of metformin AUC0-t when co-administered with olaparib: 159.8%
  increase of metformin AUC0-∞ when co-administered with olaparib: 74.1%
  increase of metformin Cmax in the presence of olaparib: 177.8%
[2]; [9]
  increase of metformin AUC on concomitant olaparib: 2.6 times
  increase of metformin Cmax on concomitant olaparib: 2.8 times
[2]; t 0.083 h, IIMET (metformin alone), individual rats 17-24
  Cmet: 0.139 µg/mL and 0.07 µg/mL and 0.274 µg/mL and 0.12 µg/mL and 0.149 µg/mL and 0.135 µg/mL and 0.136 µg/mL and 0.145 µg/mL
[2]; t 0.5 h, IIMET (metformin alone), individual rats 17-24
  Cmet: 0.153 µg/mL and 0.15 µg/mL and 0.313 µg/mL and 0.434 µg/mL and 0.58 µg/mL and 0.179 µg/mL and 0.143 µg/mL and 0.118 µg/mL
[2]; t 0.5 h, IMET+OLA (metformin and olaparib), individual rats 9-16
  Cmet: 0.305 µg/mL and 0.586 µg/mL and 0.526 µg/mL and 1.222 µg/mL and 0.663 µg/mL and 0.324 µg/mL and 0.506 µg/mL
[2]; t 1 h, IIMET (metformin alone), individual rats 17-24
  Cmet: 0.174 µg/mL and 0.18 µg/mL and 1.014 µg/mL and 0.544 µg/mL and 0.499 µg/mL and 0.32 µg/mL and 0.159 µg/mL and 0.287 µg/mL
[2]; t 1 h, IMET+OLA (metformin and olaparib), individual rats 9-16
  Cmet: 0.543 µg/mL and 0.726 µg/mL and 0.856 µg/mL and 1.358 µg/mL and 0.97 µg/mL and 2.359 µg/mL and 0.185 µg/mL and 0.747 µg/mL
[2]; t 2 h, IIMET (metformin alone), individual rats 17-24
  Cmet: 0.23 µg/mL and 0.17 µg/mL and 0.418 µg/mL and 0.681 µg/mL and 0.209 µg/mL and 0.126 µg/mL and 0.165 µg/mL and 0.28 µg/mL
[2]; t 2 h, IMET+OLA (metformin and olaparib), individual rats 9-16
  Cmet: 0.528 µg/mL and 0.55 µg/mL and 1.159 µg/mL and 2.443 µg/mL and 1.095 µg/mL and 0.402 µg/mL and 0.242 µg/mL and 0.446 µg/mL
[2]; t 4 h, IIMET (metformin alone), individual rats 17-24
  Cmet: 0.113 µg/mL and 0.13 µg/mL and 0.27 µg/mL and 0.646 µg/mL and 0.162 µg/mL
[2]; t 4 h, IMET+OLA (metformin and olaparib), individual rats 9-16
  Cmet: 0.578 µg/mL and 0.585 µg/mL and 1.642 µg/mL and 1.111 µg/mL and 0.694 µg/mL and 0.502 µg/mL and 0.361 µg/mL and 0.396 µg/mL
[2]; t 6 h, IMET+OLA (metformin and olaparib), individual rats 9-16
  Cmet: 0.469 µg/mL and 0.284 µg/mL and 1.584 µg/mL and 1.082 µg/mL and 0.494 µg/mL and 0.321 µg/mL and 0.41 µg/mL and 0.368 µg/mL
[2]; t 8 h, IMET+OLA (metformin and olaparib), individual rats 9-16
  Cmet: 0.57 µg/mL and 0.234 µg/mL and 1.165 µg/mL and 0.793 µg/mL and 0.485 µg/mL and 0.275 µg/mL and 0.247 µg/mL and 0.287 µg/mL
[2]; t 10 h, IMET+OLA (metformin and olaparib), individual rats 9-16
  Cmet: 0.281 ug/ml and 0.155 ug/ml and 0.738 ug/ml and 0.33 ug/ml and 0.444 ug/ml and 0.268 ug/ml (2×) and 0.186 ug/ml
[2]; t 24 h, IMET+OLA (metformin and olaparib), individual rats 9-16
  Cmet: 0.133 µg/mL and 0.13 µg/mL and 0.334 µg/mL and 0.18 µg/mL and 0.236 µg/mL and 0.141 µg/mL and 0.117 µg/mL and 0.187 µg/mL
